How the values were obtained:
Test in all cases: relative viability (nuclei count vs DMSO), 5 days (fraction); higher = more cells survive
A-427 = system: A-427
Procedure, shortened: (§1)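 Medians of duplicate plates are given as relative viability. That measure is the nuclei count in treated wells divided by the count in vehicle wells. Counts were taken on 4× images of lung cancer cell lines in 1536-well plates, 5 days after pin-tool dosing the day after seeding with one drug alone or a fixed anchor-drug dose plus five library-drug doses (not always all listed) in √10 steps.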

COR-L 105 = system: COR-L 105
Procedure, shortened: as §1

ChaGo-K-1 = system: ChaGo-K-1
Procedure, shortened: as §1

EKVX = system: EKVX
Procedure, shortened: as §1

EMC-BAC-2 = system: EMC-BAC-2
Procedure, shortened: as §1

H3255 = system: H3255
Procedure, shortened: as §1

HCC-366 = system: HCC-366
Procedure, shortened: as §1

LK-2 = system: LK-2
Procedure, shortened: as §1

LOU-NH91 = system: LOU-NH91
Procedure, shortened: as §1

NCI-H1563 = system: NCI-H1563
Procedure, shortened: as §1

NCI-H1666 = system: NCI-H1666
Procedure, shortened: as §1

NCI-H1734 = system: NCI-H1734
Procedure, shortened: as §1

NCI-H1755 = system: NCI-H1755
Procedure, shortened: as §1

NCI-H1792 = system: NCI-H1792
Procedure, shortened: as §1

NCI-H1975 = system: NCI-H1975
Procedure, shortened: as §1

NCI-H2170 = system: NCI-H2170
Procedure, shortened: as §1

NCI-H23 = system: NCI-H23
Procedure, shortened: as §1

NCI-H441 = system: NCI-H441
Procedure, shortened: as §1

NCI-H520 = system: NCI-H520
Procedure, shortened: as §1

NCI-H596 = system: NCI-H596
Procedure, shortened: as §1

PC-3 [JPC-3] = system: PC-3 [JPC-3]
Procedure, shortened: as §1

SK-MES-1 = system: SK-MES-1
Procedure, shortened: as §1

SW 900 = system: SW 900
Procedure, shortened: as §1

## CC1(C)CCC(c2ccc(Cl)cc2)=C(CN2CCN(c3ccc(C(=O)NS(=O)(=O)c4ccc(N[C@H](CCN5CCOCC5)CSc5ccccc5)c(S(=O)(=O)C(F)(F)F)c4)cc3)CC2)C1 [Navitoclax] + Cc1nc(Nc2ncc(C(=O)Nc3c(C)cccc3Cl)s2)cc(N2CCN(CCO)CC2)n1 [Dasatinib] (partner 0.075 µM)
A-427; first compound 0.005 µM
  relative viability: 0.784
A-427; first compound 0.01581 µM
  relative viability: 0.694
A-427; first compound 0.05 µM
  relative viability: 0.71
A-427; first compound 0.1581 µM
  relative viability: 0.734
A-427; first compound 0.5 µM
  relative viability: 0.643
COR-L 105; first compound 0.005 µM
  relative viability: 0.331
COR-L 105; first compound 0.01581 µM
  relative viability: 0.458
COR-L 105; first compound 0.05 µM
  relative viability: 0.331
COR-L 105; first compound 0.1581 µM
  relative viability: 0.342
COR-L 105; first compound 0.5 µM
  relative viability: 0.306
ChaGo-K-1; first compound 0.005 µM
  relative viability: 0.479
ChaGo-K-1; first compound 0.01581 µM
  relative viability: 0.627
ChaGo-K-1; first compound 0.05 µM
  relative viability: 0.322
ChaGo-K-1; first compound 0.1581 µM
  relative viability: 0.639
ChaGo-K-1; first compound 0.5 µM
  relative viability: 0.666
EKVX; first compound 0.005 µM
  relative viability: 0.607
EKVX; first compound 0.01581 µM
  relative viability: 0.583
EKVX; first compound 0.05 µM
  relative viability: 0.512
EKVX; first compound 0.1581 µM
  relative viability: 0.692
EKVX; first compound 0.5 µM
  relative viability: 0.598
EMC-BAC-2; first compound 0.005 µM
  relative viability: 0.29
EMC-BAC-2; first compound 0.01581 µM
  relative viability: 0.354
EMC-BAC-2; first compound 0.05 µM
  relative viability: 0.312
EMC-BAC-2; first compound 0.1581 µM
  relative viability: 0.267
EMC-BAC-2; first compound 0.5 µM
  relative viability: 0.288
H3255; first compound 0.005 µM
  relative viability: 0.344
H3255; first compound 0.01581 µM
  relative viability: 0.424
H3255; first compound 0.05 µM
  relative viability: 0.346
H3255; first compound 0.1581 µM
  relative viability: 0.31
H3255; first compound 0.5 µM
  relative viability: 0.204
HCC-366; first compound 0.005 µM
  relative viability: 0.587
HCC-366; first compound 0.01581 µM
  relative viability: 0.689
HCC-366; first compound 0.1581 µM
  relative viability: 0.709
HCC-366; first compound 0.5 µM
  relative viability: 0.646
LK-2; first compound 0.005 µM
  relative viability: 0.319
LK-2; first compound 0.01581 µM
  relative viability: 0.368
LK-2; first compound 0.05 µM
  relative viability: 0.309
LK-2; first compound 0.1581 µM
  relative viability: 0.202
LK-2; first compound 0.5 µM
  relative viability: 0.37
LOU-NH91; first compound 0.005 µM
  relative viability: 0.522
LOU-NH91; first compound 0.01581 µM
  relative viability: 0.566
LOU-NH91; first compound 0.05 µM
  relative viability: 0.454
LOU-NH91; first compound 0.1581 µM
  relative viability: 0.5
LOU-NH91; first compound 0.5 µM
  relative viability: 0.377
NCI-H1563; first compound 0.005 µM
  relative viability: 0.464
NCI-H1563; first compound 0.01581 µM
  relative viability: 0.458
NCI-H1563; first compound 0.05 µM
  relative viability: 0.46
NCI-H1563; first compound 0.1581 µM
  relative viability: 0.434
NCI-H1563; first compound 0.5 µM
  relative viability: 0.474
NCI-H1666; first compound 0.005 µM
  relative viability: 0.647
NCI-H1666; first compound 0.01581 µM
  relative viability: 0.853
NCI-H1666; first compound 0.05 µM
  relative viability: 0.755
NCI-H1666; first compound 0.1581 µM
  relative viability: 0.833
NCI-H1666; first compound 0.5 µM
  relative viability: 0.766
NCI-H1734; first compound 0.005 µM
  relative viability: 0.41
NCI-H1734; first compound 0.01581 µM
  relative viability: 0.544
NCI-H1734; first compound 0.1581 µM
  relative viability: 0.425
NCI-H1734; first compound 0.5 µM
  relative viability: 0.554
NCI-H1755; first compound 0.005 µM
  relative viability: 0.396
NCI-H1755; first compound 0.01581 µM
  relative viability: 0.416
NCI-H1755; first compound 0.05 µM
  relative viability: 0.262
NCI-H1755; first compound 0.1581 µM
  relative viability: 0.339
NCI-H1755; first compound 0.5 µM
  relative viability: 0.281
NCI-H1792; first compound 0.005 µM
  relative viability: 0.717
NCI-H1792; first compound 0.01581 µM
  relative viability: 0.914
NCI-H1792; first compound 0.05 µM
  relative viability: 0.64
NCI-H1792; first compound 0.1581 µM
  relative viability: 0.782
NCI-H1792; first compound 0.5 µM
  relative viability: 0.79
NCI-H1975; first compound 0.005 µM
  relative viability: 0.346
NCI-H1975; first compound 0.01581 µM
  relative viability: 0.36
NCI-H1975; first compound 0.05 µM
  relative viability: 0.415
NCI-H1975; first compound 0.1581 µM
  relative viability: 0.337
NCI-H1975; first compound 0.5 µM
  relative viability: 0.323
NCI-H2170; first compound 0.005 µM
  relative viability: 0.557
NCI-H2170; first compound 0.01581 µM
  relative viability: 0.528
NCI-H2170; first compound 0.05 µM
  relative viability: 0.397
NCI-H2170; first compound 0.1581 µM
  relative viability: 0.595
NCI-H2170; first compound 0.5 µM
  relative viability: 0.574
NCI-H23; first compound 0.005 µM
  relative viability: 0.841
NCI-H23; first compound 0.01581 µM
  relative viability: 0.79
NCI-H23; first compound 0.05 µM
  relative viability: 0.627
NCI-H23; first compound 0.1581 µM
  relative viability: 0.705
NCI-H23; first compound 0.5 µM
  relative viability: 0.779
NCI-H441; first compound 0.005 µM
  relative viability: 0.739
NCI-H441; first compound 0.01581 µM
  relative viability: 0.639
NCI-H441; first compound 0.05 µM
  relative viability: 0.549
NCI-H441; first compound 0.1581 µM
  relative viability: 0.632
NCI-H441; first compound 0.5 µM
  relative viability: 0.637
NCI-H520; first compound 0.01581 µM
  relative viability: 0.205
NCI-H520; first compound 0.05 µM
  relative viability: 0.272
NCI-H520; first compound 0.1581 µM
  relative viability: 0.201
NCI-H520; first compound 0.5 µM
  relative viability: 0.258
NCI-H596; first compound 0.005 µM
  relative viability: 0.734
NCI-H596; first compound 0.01581 µM
  relative viability: 0.68
NCI-H596; first compound 0.1581 µM
  relative viability: 0.603
NCI-H596; first compound 0.5 µM
  relative viability: 0.438
PC-3 [JPC-3]; first compound 0.005 µM
  relative viability: 1.02
PC-3 [JPC-3]; first compound 0.01581 µM
  relative viability: 1.07
PC-3 [JPC-3]; first compound 0.05 µM
  relative viability: 0.773
PC-3 [JPC-3]; first compound 0.1581 µM
  relative viability: 0.97
PC-3 [JPC-3]; first compound 0.5 µM
  relative viability: 0.858
SK-MES-1; first compound 0.005 µM
  relative viability: 0.324
SK-MES-1; first compound 0.01581 µM
  relative viability: 0.466
SK-MES-1; first compound 0.05 µM
  relative viability: 0.395
SK-MES-1; first compound 0.1581 µM
  relative viability: 0.393
SK-MES-1; first compound 0.5 µM
  relative viability: 0.43
SW 900; first compound 0.005 µM
  relative viability: 0.504
SW 900; first compound 0.01581 µM
  relative viability: 0.537
SW 900; first compound 0.05 µM
  relative viability: 0.475
SW 900; first compound 0.1581 µM
  relative viability: 0.8
SW 900; first compound 0.5 µM
  relative viability: 0.42

Reference: the supplement of paper PMC10307832
